We go through 5 molecules from article PMC7766132, “N-Terminal Tagging with GFP Enhances Selectivity of Agitoxin 2 to Kv1.3-Channel Binding Site” (Toxins, 2020).

The subject of one assay is KcsA-Kv1.1. Description: Competitive displacement of AgTx2-L3-GFP from KcsA-Kv1.1 on spheroplasts. As to conditions: AgTx2-L3-GFP 20 nM; Figure 4. The class given is binding.
Assay [1] relates to KcsA-Kv1.3. Nature of the assay: Competitive displacement of GFP-L2-AgTx2 from KcsA-Kv1.3 on spheroplasts. It counts as binding. As to conditions: for Displacement of GFP-L2-AgTx2 from complexes with KcsA-Kv1.3 (in words) / Concentration range of competition with GFP-L2-AgTx2 for KcsA-Kv1.3: GFP-L2-AgTx2 20 nM; for Displacement of GFP-L2-AgTx2 from complexes with KcsA-Kv1.3 (in words) / Kd: 2 h, 37 °C; for Displacement of GFP-L2-AgTx2 from complexes with KcsA-Kv1.3 (in words): Figure 2D; for Kd: fluorescent ligand GFP-L2-AgTx2 20 nM, Kap = IC50/(1 + [L]/[Kd]), mean ± SEM, n = 3, read-out: Apparent dissociation constant Kap of peptide blocker – Kv1.3-binding site complexes; for Concentration range of competition with GFP-L2-AgTx2 for KcsA-Kv1.3: titration, Figure 3E.

The next assay deals with KcsA-Kv1.6. Description: Competitive displacement of AgTx2-L3-GFP from KcsA-Kv1.6 on spheroplasts. It counts as binding. The settings on record: AgTx2-L3-GFP 20 nM; Figure 4.
The target in assay [2] is KcsA-Kv1.3. Nature of the assay: Competitive displacement of His6-GFP-L2-AgTx2 from KcsA-Kv1.3 on spheroplasts. It counts as binding. The settings on record: for Kd: fluorescent ligand His6-GFP-L2-AgTx2 20 nM, 2 h, 37 °C, Kap = IC50/(1 + [L]/[Kd]), mean ± SEM, n = 3, read-out: Apparent dissociation constant Kap of peptide blocker – Kv1.3-binding site complexes; for Concentration range of competition with His6-GFP-L2-AgTx2 for KcsA-Kv1.3: titration, His6-GFP-L2-AgTx2 20 nM, Figure 3F.

Assay [3] deals with KcsA-Kv1.3. Nature of the assay: Competitive displacement of AgTx2-L3-GFP from KcsA-Kv1.3 on spheroplasts. The class given is binding. As to conditions: AgTx2-L3-GFP 20 nM; Figure 4.
For a further assay, the system named is Kv1.3. As to conditions: cited from earlier work. The text has this: AgTx2 was successfully used in the form of a fluorescently labeled peptide (either RFP-AgTx2, or AgTx2 chemically labeled with tetramethylrhodamine, R-AgTx2) to probe binding affinities of various peptide toxins to different Kv1 channels. Extending color variety of AgTx2-based FP-Tx, we report here on the design of GFP-tagged AgTx2. Ability of GFP-tagged AgTx2 to interact with the pore blocker bi ... || To verify specificity of GFP-L2-AgTx2 interaction with the Kv1.3 binding site on the surface of KcsA-Kv1.3-presenting spheroplasts, we have studied the effect of well-known potassium channel peptide blockers on this interaction (Figure 2D). […] Scillato ... || To clarify the structural basis of the advanced selectivity of GFP-L2-AgTx2, a homologous GFP-L1-AgTx2 ligand was produced, in which the 45-aminoacid L1 linker was used instead of the L2 linker (Figure 1A).

For assay [4], the system named is mKate2-hKv1.3-del. Description: Competitive displacement of GFP-L2-AgTx2 from mKate2-hKv1.3-del on HEK293 cells. It counts as cell-based, human. As to conditions: GFP-L2-AgTx2 40 nM, AgTx2 400 nM, 40 min. The text has this: KCNA3 gene encoding human Kv1.3 (hKv1.3, Accession number NP_002223.3) was a generous gift from Dr. A. Vassilevski. The gene was amplified using primers KCNA3-del-f1 and KCNA3-r1 (Table 2) to obtain KCNA3-del gene encoding N-terminally truncated protein, in which residues M1 through D52 were deleted. The truncated gene was inserted into BglII/HindIII sites of pmKate2-C plasmid (Evrogen, Moscow, Russia) to obtain the resulting plasmid pmKate2-KCNA3-del, which was further used for transfection of HEK293T cells. In the hybrid protein, mKate2-hKv1.3-del, mKate2 was linked to the N-terminus of the hKv1.3-del channel through the 9-aa flexible linker. […]
HEK 293 cells (from the collection of the Institute of Cytology RAS) were grown (37 °C, 5% CO2) in DMEM/F12 (Paneco, Russia) containing 5% fetal bovine serum (FBS, HyClone, Utah, USA) and 2 mM L-glutamine. […] Competitive binding was assessed by incubating cells with GFP-L2-AgTx2 (40 nM) and AgTx2 (400 nM) for 40 min. […]
Experiments with HEK293 cells were performed with a laser scanning confocal microscope Leica-SP2 (Leica Microsystems GmbH, Wetzlar, Germany). […] Fluorescence of GFP-tagged AgTx2 was excited at the 488 nm wavelength and recorded in the 495–535 nm range. Fluorescence of mKate2-hKv1.3 was excited at the 561 nm wavelength and recorded in the 650–700 nm range.

Another assay has as its system Kv1.1. As to conditions: cited from earlier work. The text has this:
(§1) AgTx2 was successfully used in the form of a fluorescently labeled peptide (either RFP-AgTx2, or AgTx2 chemically labeled with tetramethylrhodamine, R-AgTx2) to probe binding affinities of various peptide toxins to different Kv1 channels. Extending color variety of AgTx2-based FP-Tx, we report here on the design of GFP-tagged AgTx2. Ability of GFP-tagged AgTx2 to interact with the pore blocker bi ... || To clarify the structural basis of the advanced selectivity of GFP-L2-AgTx2, a homologous GFP-L1-AgTx2 ligand was produced, in which the 45-aminoacid L1 linker was used instead of the L2 linker (Figure 1A). […] Fusion of AgTx2 with GFP was performed using the 20-aa glycine-rich L3 linker, whose sequence was similar to the L2 linker.

A further assay relates to Kv1.6. As to conditions: cited from earlier work.
Description: as §1

The test system of another assay is Kv1.2. The settings on record: cited from earlier work. The text has this:
Several fluorescently labeled peptide toxins were produced by chemical synthesis using reactive fluorescent organic dyes. The procedures are usually laborious, and the yields of the labeled products are often low. As an alternative, genetically encoded fluorescent protein-scorpion toxin chimeras (FP-Tx), which are the polypeptide ligands of potassium voltage-gated Kv1-channels were recently developed. […] AgTx2 was successfully used in the form of a fluorescently labeled peptide (either RFP-AgTx2, or AgTx2 chemically labeled with tetramethylrhodamine, R-AgTx2) to probe binding affinities of various peptide toxins to different Kv1 channels. Extending color variety of AgTx2-based FP-Tx, we report here on the design of GFP-tagged AgTx2. Ability of GFP-tagged AgTx2 to interact with the pore blocker bi ...

A further assay concerns KCa2.3. As to conditions: known pharmacology, no reference given; cited from earlier work.
In assay [5] the test system is mKate2-hKv1.3-del. As to conditions: transient expression; cited from earlier work. The text has this: In the following experiments we have verified, if AgTx2-L2-GFP, His6-AgTx2-L2-GFP and GFP-L1-AgTx2 can be used as fluorescent probes of Kv1.3 channels on the membrane of eukaryotic cells. Recently, we have designed a plasmid that encoded the fluorescently labeled human Kv1.3 channel (mKate2-hKv1.3-del) with enhanced presentation on the membrane of eukaryotic cells. […] Previously, the ...

Take `CC[C@H](C)[C@@H]1NC(=O)[C@@H]2CSSC[C@@H]3NC(=O)[C@H](CCCCN)NC(=O)[C@H](CCCNC(=N)N)NC(=O)[C@H](CC(N)=O)NC(=O)[C@H](CCSC)NC(=O)[C@H](CSSC[C@H](NC(=O)[C@H](CO)NC(=O)[C@@H](NC(=O)[C@H](CC(N)=O)NC(=O)[C@@H](NC(=O)[C@@H]4CCCN4C(=O)[C@@H](NC(=O)CN)C(C)C)[C@@H](C)CC)C(C)C)C(=O)N[C@@H]([C@@H](C)O)C(=O)NCC(=O)N[C@@H](CO)C(=O)N4CCC[C@H]4C(=O)N[C@@H](CCC(N)=O)C(=O)N2)NC(=O)[C@H](CCCCN)NC(=O)CNC(=O)[C@H](Cc2ccccc2)NC(=O)[C@H](CCCNC(=N)N)NC(=O)[C@H](CCSC)NC(=O)CNC(=O)[C@H](C)NC(=O)[C@H](CC(=O)O)NC(=O)[C@H](CCCCN)NC(=O)[C@H](CSSC[C@@H](C(=O)N[C@H](C(=O)N2CCC[C@H]2C(=O)N[C@@H](CCCCN)C(=O)O)[C@@H](C)O)NC(=O)[C@H](Cc2c[nH]cn2)NC3=O)NC(=O)[C@@H]2CCCN2C(=O)[C@H](CCCCN)NC1=O` [AgTx2, agitoxin 2]: in the assay with KcsA-Kv1.1, the “Displacement of AgTx2-L3-GFP from complexes with KcsA-Kv1.1 (in words)” value (“Displacement … with KcsA-Kv1.1 (in words)” for short) is “readily displaced”. In the assay on KcsA-Kv1.3 [1], the “Displacement of GFP-L2-AgTx2 from complexes with KcsA-Kv1.3 (in words)” value is listed as “low nanomolar”, the Kd was found to be 0.23 ± 0.05 nM and the “Concentration range of competition with GFP-L2-AgTx2 for KcsA-Kv1.3” value is given as “nanomolar concentration range”. Besides, the “Displacement of AgTx2-L3-GFP from complexes with KcsA-Kv1.6 (in words)” value (“Displacement … with KcsA-Kv1.6 (in words)” below) in the assay on KcsA-Kv1.6 is listed as “readily displaced”. Moreover, at KcsA-Kv1.3 [2], the Kd is 0.07 ± 0.004 nM and the “Concentration range of competition with His6-GFP-L2-AgTx2 for KcsA-Kv1.3” value is recorded as “nanomolar concentration range”. Also, the “Displacement of AgTx2-L3-GFP from complexes with KcsA-Kv1.3 (in words)” value in the assay on KcsA-Kv1.3 [3] was “readily displaced”. In the assay with Kv1.3, the “Affinity to Kv1.3 (in words)” value is listed as “sub-nanomolar affinity”; the “Selectivity for Kv1.3 over Kv1.1 and Kv1.6 channels” value is given as “ca. tenfold”. In addition, the “Displacement of GFP-L2-AgTx2 from mKate2-hKv1.3-del at the cell membrane (in words)” value in the assay with mKate2-hKv1.3-del [4] is on record as “displaced totally”. Further, in the assay on Kv1.1, the “Affinity to Kv1.1 (in words)” value was “sub-nanomolar affinity”. Further, in the assay with Kv1.6, the “Affinity to Kv1.6 (in words)” value is recorded as “sub-nanomolar affinity”. The “Affinity to Kv1.2 (in words)” value in the assay on Kv1.2 is listed as “nanomolar affinity”.

Consider `CC[C@H](C)[C@H](NC(=O)[C@H](CCC(=O)O)NC(=O)[C@@H](NC(=O)CN)C(C)C)C(=O)N[C@@H](CC(N)=O)C(=O)N[C@H](C(=O)N[C@@H](CCCCN)C(=O)N[C@H]1CSSC[C@@H]2NC(=O)[C@H](CCCCN)NC(=O)CNC(=O)[C@H](Cc3ccccc3)NC(=O)[C@H](CCCNC(=N)N)NC(=O)[C@H](CCSC)NC(=O)CNC(=O)[C@H](C)NC(=O)[C@H](CC(=O)O)NC(=O)[C@H](CCCCN)NC(=O)[C@@H]3CSSC[C@@H](C(=O)N[C@H](C(=O)N4CCC[C@H]4C(=O)N[C@@H](CCCCN)C(=O)O)[C@@H](C)O)NC(=O)[C@H](Cc4c[nH]cn4)NC(=O)[C@H](CSSC[C@H](NC(=O)[C@H](CCC(N)=O)NC(=O)[C@@H]4CCCN4C(=O)[C@H](CO)NC(=O)CNC(=O)[C@H](CO)NC1=O)C(=O)N[C@@H](CC(C)C)C(=O)N[C@@H](CCCCN)C(=O)N1CCC[C@H]1C(=O)N3)NC(=O)[C@H](CCCCN)NC(=O)[C@H](CCCNC(=N)N)NC(=O)[C@H](CC(N)=O)NC(=O)[C@H](CCSC)NC2=O)C(C)C` [KTx1, kaliotoxin 1], for which the “Displacement … with KcsA-Kv1.1 (in words)” value in the assay with KcsA-Kv1.1 is “readily displaced”. Moreover, in the assay on KcsA-Kv1.3 [1], the “Displacement of GFP-L2-AgTx2 from complexes with KcsA-Kv1.3 (in words)” value is given as “low nanomolar”, the Kd turned out to be 0.1 ± 0.04 nM and the “Concentration range of competition with GFP-L2-AgTx2 for KcsA-Kv1.3” value is listed as “nanomolar concentration range”. In addition, the “Displacement … with KcsA-Kv1.6 (in words)” value in the assay on KcsA-Kv1.6 is “readily displaced”. In addition, on KcsA-Kv1.3 [2], the Kd came out at 0.071 ± 0.007 nM and the “Concentration range of competition with His6-GFP-L2-AgTx2 for KcsA-Kv1.3” value is “nanomolar concentration range”. Further, the “Displacement of AgTx2-L3-GFP from complexes with KcsA-Kv1.3 (in words)” value in the assay on KcsA-Kv1.3 [3] is listed as “readily displaced”.

Take Hetlaxin [HeTx]: in the assay with KcsA-Kv1.3 [1], the “Displacement of GFP-L2-AgTx2 from complexes with KcsA-Kv1.3 (in words)” value was “low micromolar concentrations”, the Kd is 39 nM and the “Concentration range of competition with GFP-L2-AgTx2 for KcsA-Kv1.3” value was “higher concentrations”. Besides, on KcsA-Kv1.3 [2], the Kd came out at 45 nM and the “Concentration range of competition with His6-GFP-L2-AgTx2 for KcsA-Kv1.3” value is given as “higher concentrations”. Also, in the assay with Kv1.3, the “Affinity to Kv1.3 channels (in words)” value is given as “moderate-affinity ligand”.

For the molecule Scillatoxin [ScTx], the “Pore block of KCa2.3 channel (in words)” value with KCa2.3 is “pore blocker of KCa2.3 channel”. For the same molecule, in the assay with KcsA-Kv1.1, the “Displacement … with KcsA-Kv1.1 (in words)” value is recorded as “did not compete”. In addition, the “Displacement of GFP-L2-AgTx2 from complexes with KcsA-Kv1.3 (in words)” value in the assay on KcsA-Kv1.3 [1] is given as “did not affect GFP-L2-AgTx2 binding to KcsA-Kv1.3”. In addition, the “Displacement … with KcsA-Kv1.6 (in words)” value with KcsA-Kv1.6 is “did not compete”. The “Displacement of AgTx2-L3-GFP from complexes with KcsA-Kv1.3 (in words)” value with KcsA-Kv1.3 [3] is on record as “did not compete”. In the assay with Kv1.3 (known pharmacology, no reference given), the “Interaction with Kv1.3 channel (in words)” value was “no ability to interact with Kv1.3 channel”.

Consider hongotoxin 1, for which the “Binding to mKate2-hKv1.3-del in eukaryotic cells (in words)” value in the assay with mKate2-hKv1.3-del [5] is reported as “bind specifically”.
